According to paper PMC6878970, “Understanding the physicochemical properties and degradation kinetics of nicotinamide riboside, a promising vitamin B3nutritional supplement” (Food & Nutrition Research, 2019):
Several values for one entry are separate records, joined by “and”; a condition that tells them apart may be missing. Identical values can stand only once.

What was measured:
human blood NAD+ = system: human blood NAD+; design: method as in PMID 27721479; details: after one single oral dose; cited from earlier work
[1] = Degradation kinetics of NRCl in aqueous solutions (Arrhenius); type: physicochemical; details: for activation energy Ea of degradation: 55, 65, 75°C, n = 5
Experimental: NRCl degradation products and mechanism were determined and confirmed using ^1H NMR. NRCl degradation kinetics in aqueous solution was determined using three pH environments: pH 2.0, 5.0, and 7.4 (each with a constant ionic strength of 0.3M adjusted using NaCl), and three experimental temperature conditions, namely, 55°C, 65°C, and 75°C, respectively. In all cases, five replicates were used for pH–temperature combinations and each was an individual, sealed, and labelled glass vial with 20mL of the respective buffer. For each experiment, these vials were left overnight to equilibrate to the respective temperature environment in a temperature-controlled oven. At the start of each experiment, the vials were removed and a stock solution of NR was added. Aliquots were then extracted from each vial at this point for a t = 0 and the vials were placed back into the oven until the next time point. The sampling intervals were every 2, 1, and 0.5 h for 55°C, 65°C, and 75°C, respectively, and a total of five time points were used for each individual vial. When an aliquot was removed, it was dispensed into a 2mL micro tube and placed in ice to quench the reaction until preparation for HPLC analysis.

[2] = Experimental determination of pKa by UV spectroscopy; type: physicochemical; details: NaOH solutions; first focused experiment, pH range 11.0–12.2
Experimental: NR stock solution was added to nine respective buffer solutions ranging from pH 1.5 to 12.8 and analysed by UV spectroscopic scanning over 200–500 nm using a Cary 50 scan UV-visible spectrophotometer (Agilent Technologies, USA). […] Equation 1 is a modified Beers–Lambert and Henderson–Hasselbalch equation ([14]). This was used to calculate pKa. AI is the absorbance of the ionised species, AM is the absorbance of the molecular species, and A is the absorbance at any given pH. The same method as above was then repeated using the same parameters and equipment for a duplicate result.
pKa=pH+logAI−A/A−AM Equation 1

[3] = Aqueous solubility determination; type: physicochemical; details: for solubility at 24 h: aqueous buffer, thermodynamic from solid
Experimental: Three pH environments, namely pH 2.0, 5.0, and, 7.4, were used to determine the aqueous solubility of NR. Each buffer was added to a glass vial and stored at 4°C prior to the experiments. NRCl powder was then slowly added over a 24-h-periodunder constant mixing until the solution was clearly saturated (visual observation, n = 3). Aliquots were then drawn from each vial and passed through a 0.22 μm syringe filter unit (Millipore, Merck, USA). Samples were then analysed using the validated HPLC method.

[4] = Combinatorial DSC and 1H NMR (qNMR) thermal decomposition; type: physicochemical; details: quench-cooled
Experimental: A Bruker® Ultrashield 400 MHz NMR was used for NMR spectroscopy. All samples were prepared using deuterated water. For ^1H NMR spectra acquisition, 256 scans were used. A relative quantitative NMR (qNMR) method was established and validated by comparing the integral values of NR chemical shift peaks to the integral values of the peaks of Nam. The integral of a peak is directly proportional to the number of nuclei the peak represents and the molar concentration of the compound in the sample ([14]). The percentage of NR was calculated using Equation 2 (modified from the literature), where INR H2 and INam H2 were the integral values of the singlet of NR H2 at 9.6 ppm and the singlet for Nam H2 at 8.6 ppm, respectively. N represents the number of nuclei (protons) that contribute to each peak. In this case, N = 1 for both NR H2 and Nam H2 peaks as they represent one proton each.
% NR in smaple=(INR H2/NNR H2)/(INR H2/NNR H2)+(INam H2/NNam H2)×100 Equation 2
DSC was used in conjunction with ^1H NMR spectroscopy to assess NR stability at certain temperatures and confirm compositional change throughout the entire thermal degradation process. […] This was then repeated in pans with no lids and these pans were then put in 1mL of D2O until all the contents were fully dissolved. The resulting D2O solutions were then subjected to ^1H NMR analysis, as previously detailed, to assess the stability of NRCl at each stage of its melting motif.

[5] = NRCl stability in simulated gastrointestinal fluids; type: physicochemical
Experimental: NRCl powder was tested under simulated GI conditions to assess the stability of the raw material in fluids relevant to the GI physiology. These experiments were carried out using a Copley™ dissolution bath equipped with the USP II paddle apparatus at a stirring rate of 75rpm and a temperature of 37°C± 0.1°C. Five dissolution media were tested (Table 2). 0.1N HCl, USP simulated gastric fluid without pepsin (USP SGFW/O pepsin), and USP simulated gastric fluid with pepsin (USP SGF) were used to simulate the stomach environment. Phosphate standard buffer (Int. Pharm. SIF) and simulated intestinal fluid pH 6.8 (USP SIF) were used to simulate the intestinal environment. A 24-h simulation was also performed using the USP prolonged release (USP PR) method whereby for the first 2 h of the experiment the NRCl was added to 750 mL 0.1N HCl. Subsequently, 250 mL of 0.2M trisodium phosphate was added and pH adjusted to pH 6.8 for the remaining 22 h. This step-change pH model simulates the pH change in traversing from the stomach to the intestine ([15]).

mammalian cell lines = system: mammalian cell lines; design: method as in PMID 18052316; details: cited from earlier work
[6] = design: method as in PMID 26791540; details: cited from earlier work
Sirtuin (SIRT) = system: Sirtuin (SIRT); design: method as in PMID 12297502, PMID 14522996, PMID 12899610; details: cited from earlier work

NC(=O)c1ccc[n+]([C@@H]2O[C@H](CO)[C@@H](O)[C@H]2O)c1 [NRCl, nicotinamide riboside chloride]
increase in human blood NAD+ (human blood NAD+): more than twofold | change of degradation rate on raising the pH value from 5.0 to 7.4 ([1]; at each respective temperature): doubled | activation energy Ea of degradation ([1]; pH 7.4): 82.8 (±4.4) kJ/mol | pKa [2]: 11.5 ± 0.2 | solubility class according to the USP definitions ([3]; all three tested pH environments (2.0, 5.0, 7.4), freely soluble = 100–1,000 mg/mL): freely soluble | solubility at 24 h ([3]; pH 7.4, aqueous buffer): 826 ± 34.4 mg/mL | solubility at 24 h ([3]; pH 2.0): 972.7 ± 8.1 mg/mL | solubility at 24 h ([3]; pH 5.0): 860 ± 31 mg/mL | degradation (qNMR) ([4]; solid heated to 115°C): completely intact | NRCl remaining ([5]; 0.1N HCl pH 1.2, 37°C, 75rpm, after 2 h): 97.64 ± 0.08% | NRCl remaining ([5]; 24-h GI simulation (USP PR, pH 1.2 then 6.8 after 2 h), after 8 h): 90.51 ± 0.82% | NRCl remaining ([5]; Int. Pharm. SIF pH 6.8, 37°C, after 2 h): 94.32 ± 1.16% | NRCl remaining ([5]; Int. Pharm. SIF pH 6.8, 37°C, after another 2 h (4 h)): 92.71 ± 0.81% | NRCl remaining ([5]; USP SGF (with pepsin) pH 1.2, 37°C, 75rpm, after 2 h): 97.17 ± 0.19% | NRCl remaining ([5]; USP SGF without pepsin pH 1.2, 37°C, 75rpm, after 2 h): 98.59 ± 0.10% | NRCl remaining ([5]; USP SIF pH 6.8, 37°C, after 2 h): 94.71 ± 2.66% | NRCl remaining ([5]; USP SIF pH 6.8, 37°C, after another 2 h (4 h)): 93.54 ± 2.37%

NC(=O)c1ccc[n+]([C@@H]2O[C@H](CO)[C@@H](O)[C@H]2O)c1 [NR, Nicotinamide riboside]
pre-exponential factor A of degradation ([1]; pH 2.0): 4.8e+10 min⁻¹ | activation energy Ea of degradation ([1]; pH 2.0): 75.4 (±2.9) kJ/mol and 75.4 kJ/mol | pre-exponential factor A of degradation ([1]; pH 5.0): 3.2e+10 min⁻¹ | activation energy Ea of degradation ([1]; pH 5.0): 76.9 (±1.1) kJ/mol and 76.9 kJ/mol | pre-exponential factor A of degradation ([1]; pH 7.4): 1.8e+12 min⁻¹ | activation energy Ea of degradation ([1]; pH 7.4): 82.8 kJ/mol | increase in the degradation rate for every 10°C temperature elevation ([1]; same pH environment): approximate twofold increase | increase of available NAD+ (mammalian cell lines): up to twofold | lowest adverse effect level [6]: 1,000 mg/kg/day | no-observed-adverse-effect level (NOAEL) [6]: 300 mg/kg/day | degradation (qNMR) ([4]; solid heated to 115°C): 2% | degradation (qNMR) ([4]; solid heated to 120°C): 7% | degradation (qNMR) ([4]; solid heated to 125°C): 55% | share of the sample that was NR (qNMR) ([4]; solid heated to 140°C): 0.45%

NC(=O)c1cccnc1 [Nam, Nicotinamide]
Sirtuin (SIRT) inhibition (Sirtuin (SIRT)): known Sirtuin (SIRT) inhibitor
